# Reference: patent US10251394B2, “Molecules having pesticidal utility, and intermediates, compositions, and processes, related thereto” (Dow AgroSciences LLC, priority 2016, dated 2019)
# What was measured:
# [1] = system: Beet Armyworm (Spodoptera exigua); experiment: Bioassay on Beet Armyworm (BAW), 128-well diet tray assay; assay type: in vivo; settings: for pest or weed control at 50 µg/cm2: Beet Armyworm, Table ABC, read-out: BAW rating; for mortality at 0.05 µg/cm2 / mortality at 0.5 µg/cm2 / mortality at 5 µg/cm2: 168 h, second instar larvae, five to seven days, read-out: BAW Percent control (or mortality); for mortality at 0.05 µg/cm2: 0.05 μg/cm^2 on artificial diet; for mortality at 0.5 µg/cm2: 0.5 μg/cm^2 on artificial diet; for mortality at 5 µg/cm2: 5 μg/cm^2 on artificial diet
# In short: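 Second-instar larvae (one to five per well) placed on artificial diet surface-treated with 50 μg/cm^2 test molecule in 90:10 acetone-water, dried, eight wells per molecule. Held at 25° C, 14:10 light-dark, five to seven days; percent mortality recorded per well and averaged across the eight wells.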
# [2] = system: Cabbage Looper (Trichoplusia ni); experiment: Bioassay on Cabbage Looper (CL), 128-well diet tray assay; assay type: in vivo; settings: for pest or weed control at 50 µg/cm2: Cabbage Looper, Table ABC, read-out: CL rating; for mortality at 0.05 µg/cm2 / mortality at 0.5 µg/cm2 / mortality at 5 µg/cm2: 168 h, second instar larvae, five to seven days, read-out: CL Percent control (or mortality); for mortality at 0.05 µg/cm2: 0.05 μg/cm^2 on artificial diet; for mortality at 0.5 µg/cm2: 0.5 μg/cm^2 on artificial diet; for mortality at 5 µg/cm2: 5 μg/cm^2 on artificial diet
# In short: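 Second-instar larvae, one to five per well, placed on artificial diet surface-treated with 50 μg/cm^2 compound in acetone-water, eight wells per compound. Held 5-7 days at 25° C, 14:10 light-dark; percent mortality per well averaged across wells.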
Structure (SMILES),pest or weed control at 50 µg/cm2 [1] [%],pest or weed control at 50 µg/cm2 [2] [%],also measured
"C[C@@H](NC(=O)c1ccc(/C(F)=C/C(c2cc(F)c(F)c(Cl)c2)C(F)(F)F)cc1C(F)(F)F)C(=O)NCC(F)(F)F (stereo partly drawn) [F154, 4-((Z)-3-(3-Chloro-4,5-difluorophenyl)-1,4,4,4-tetrafluorobut-1-en-1-yl)-N—((R)-1-oxo-1-((2,2,2-trifluoroethyl)amino)propan-2-yl)-2-(trifluoromethyl)benzamide]",50 to 100,50 to 100,
"C[C@@H](NC(=O)c1ccc(/C(F)=C/C(c2cc(Cl)c(Cl)c(Cl)c2)C(F)(F)F)cc1C(F)(F)F)C(=O)NCC(F)F (stereo partly drawn) [F30, N—((R)-1-((2,2-Difluoroethyl)amino)-1-oxopropan-2-yl)-4-((Z)-1,4,4,4-tetrafluoro-3-(3,4,5-trichlorophenyl)but-1-en-1-yl)-2-(trifluoromethyl)benzamide]",50 to 100,50 to 100,
"O=C(N[C@@H]1CCN(CC(F)(F)F)C1=O)c1ccc(/C(F)=C/C(c2cc(Cl)c(Cl)c(Cl)c2)C(F)(F)F)cc1C(F)(F)F (stereo partly drawn) [F171, N—((R)-2-Oxo-1-(2,2,2-trifluoroethyl)pyrrolidin-3-yl)-4-((Z)-1,4,4,4-tetrafluoro-3-(3,4,5-trichlorophenyl)but-1-en-1-yl)-2-(trifluoromethyl)benzamide]",50 to 100,50 to 100,
"C/C=C/c1cc(C(/C=C(\F)c2ccc(C(=O)N[C@H](C)C(=O)NCC(F)(F)F)c(C(F)(F)F)c2)C(F)(F)F)cc(Cl)c1Cl (stereo partly drawn) [F188, 4-((Z)-3-(3,4-Dichloro-5-((E)-prop-1-en-1-yl)phenyl)-1,4,4,4-tetrafluorobut-1-en-1-yl)-N—((R)-1-oxo-1-((2,2,2-trifluoroethyl)amino)propan-2-yl)-2-(trifluoromethyl)benzamide]",50 to 100,50 to 100,
"C[C@@H](NC(=O)c1ccc(/C(F)=C/C(c2cc(Cl)c(Cl)c(Cl)c2)C(F)(F)F)cc1Br)C(=O)NCC(F)(F)F (stereo partly drawn) [F18, 2-Bromo-N—((R)-1-oxo-1-((2,2,2-trifluoroethyl)amino)propan-2-yl)-4-((Z)-1,4,4,4-tetrafluoro-3-(3,4,5-trichlorophenyl)but-1-en-1-yl)benzamide]",50 to 100,50 to 100,mortality at 0.05 µg/cm2 [1]: 100%; mortality at 0.5 µg/cm2 [1]: 100%; mortality at 5 µg/cm2 [1]: 100%; mortality at 0.05 µg/cm2 [2]: 100%; mortality at 0.5 µg/cm2 [2]: 100%; mortality at 5 µg/cm2 [2]: 100%
"CCC(F)(F)C(/C=C(\F)c1ccc(C(=O)NC2(C(=O)NCC(F)(F)F)CC2)c(C(F)(F)F)c1)c1cc(Cl)c(Cl)c(Cl)c1 (stereo not shown) [F88, (Z)-4-(1,4,4-Trifluoro-3-(3,4,5-trichlorophenyl)hex-1-en-1-yl)-N-(1-((2,2,2-trifluoroethyl)carbamoyl)cyclopropyl)-2-(trifluoromethyl)benzamide]",50 to 100,50 to 100,
"C[C@@H](NC(=O)c1ccc(/C(F)=C/C(c2cc(Cl)c(Cl)c(Cl)c2)C(F)(F)F)cc1)C(=O)NCC(F)(F)F (stereo partly drawn) [FC2, N—((R)-1-Oxo-1-((2,2,2-trifluoroethyl)amino)propan-2-yl)-4-((Z)-1,4,4,4-tetrafluoro-3-(3,4,5-trichlorophenyl)but-1-en-1-yl)benzamide]",,,mortality at 0.05 µg/cm2 [1]: 0%; mortality at 0.5 µg/cm2 [1]: 100%; mortality at 5 µg/cm2 [1]: 100%; mortality at 0.05 µg/cm2 [2]: 0%; mortality at 0.5 µg/cm2 [2]: 100%; mortality at 5 µg/cm2 [2]: 100%
"CC(F)(F)C(/C=C(\F)c1ccc(C(=O)NCC(=O)NCC(F)(F)F)c(C(F)(F)F)c1)c1ccc(Cl)c(Cl)c1 (stereo not shown) [F129, (Z)-4-(3-(3,4-Dichlorophenyl)-1,4,4-trifluoropent-1-en-1-yl)-N-(2-oxo-2-((2,2,2-trifluoroethyl)amino)ethyl)-2-(trifluoromethyl)benzamide]",50 to 100,50 to 100,
"CON(CC(F)(F)F)C(=O)[C@@H](C)NC(=O)c1ccc(/C(F)=C/C(c2cc(Cl)c(Cl)c(Cl)c2)C(F)(F)F)cc1C(F)(F)F (stereo partly drawn) [F24, N—((R)-1-(Methoxy(2,2,2-trifluoroethyl)amino)-1-oxopropan-2-yl)-4-((Z)-1,4,4,4-tetrafluoro-3-(3,4,5-trichlorophenyl)but-1-en-1-yl)-2-(trifluoromethyl)benzamide]",50 to 100,50 to 100,
"O=C(CNC(=O)c1ccc(/C(F)=C/C(c2ccc(Br)c(Br)c2)C(F)(F)F)cc1C(F)(F)F)NCC(F)(F)F (stereo not shown) [F107, (Z)-4-(3-(3,4-Dibromophenyl)-1,4,4,4-tetrafluorobut-1-en-1-yl)-N-(2-oxo-2-((2,2,2-trifluoroethyl)amino)ethyl)-2-(trifluoromethyl)benzamide]",50 to 100,50 to 100,
"C[C@@H](NC(=O)c1ccc(/C(F)=C/C(c2cc(F)c(Cl)c(C(F)(F)F)c2)C(F)(F)F)cc1C(F)(F)F)C(=O)NCC(F)(F)F (stereo partly drawn) [F202, 4-((Z)-3-(4-Chloro-3-fluoro-5-(trifluoromethyl)phenyl)-1,4,4,4-tetrafluorobut-1-en-1-yl)-N—((R)-1-oxo-1-((2,2,2-trifluoroethyl)amino)propan-2-yl)-2-(trifluoromethyl)benzamide]",50 to 100,50 to 100,
C[C@@H](NC(=O)c1ccc(/C(F)=C/C(c2cc(Cl)c(Cl)c(CF)c2)C(F)(F)F)cc1C(F)(F)F)C(=O)NCC(F)(F)F (stereo partly shown) [F194],50 to 100,50 to 100,
"C[C@@H](NC(=O)c1ccc(/C(F)=C/C(c2cc(Cl)cc(C(C)(F)F)c2)C(F)(F)F)cc1C(F)(F)F)C(=O)NCC(F)(F)F (stereo partly drawn) [F175, 4-((Z)-3-(3-Chloro-5-(1,1-difluoroethyl)phenyl)-1,4,4,4-tetrafluorobut-1-en-1-yl)-N—((R)-1-oxo-1-((2,2,2-trifluoroethyl)amino)propan-2-yl)-2-(trifluoromethyl)benzamide]",50 to 100,50 to 100,
"CC[C@@H](NC(=O)c1ccc(/C(F)=C/C(c2cc(Cl)c(Cl)c(Cl)c2)C(F)(F)F)cc1C(F)(F)F)C(N)=O (stereo partly drawn) [F126, N—((R)-1-Amino-1-oxobutan-2-yl)-4-((Z)-1,4,4,4-tetrafluoro-3-(3,4,5-trichlorophenyl)but-1-en-1-yl)-2-(trifluoromethyl)benzamide]",50 to 100,50 to 100,
"C[C@@H](NC(=O)c1ccc(/C(F)=C/C(c2cc(Cl)c(Cl)c(Cl)c2)C(F)(F)F)cc1C(F)(F)F)C(=O)NCCC1CC1 (stereo partly drawn) [F12, N—((R)-1-((2-Cyclopropylethyl)amino)-1-oxopropan-2-yl)-4-((Z)-1,4,4,4-tetrafluoro-3-(3,4,5-trichlorophenyl)but-1-en-1-yl)-2-(trifluoromethyl)benzamide]",50 to 100,50 to 100,
"CN(CC(F)(F)F)C(=O)C1(NC(=O)c2ccc(/C(F)=C/C(c3cc(Cl)c(Br)c(Cl)c3)C(F)(F)F)cc2C(F)(F)F)CC1 (stereo not shown) [F117, (Z)-4-(3-(4-Bromo-3,5-dichlorophenyl)-1,4,4,4-tetrafluorobut-1-en-1-yl)-N-(1-(methyl(2,2,2-trifluoroethyl)carbamoyl)cyclopropyl)-2-(trifluoromethyl)benzamide]",50 to 100,50 to 100,
"C[C@@H](NC(=O)c1ccc(/C(F)=C/C(c2cc(Cl)cc(C(F)F)c2)C(F)(F)F)cc1C(F)(F)F)C(=O)NCC(F)(F)F (stereo partly drawn) [F213, 4-((Z)-3-(3-Chloro-5-(difluoromethyl)phenyl)-1,4,4,4-tetrafluorobut-1-en-1-yl)-N—((R)-1-oxo-1-((2,2,2-trifluoroethyl)amino)propan-2-yl)-2-(trifluoromethyl)benzamide]",50 to 100,50 to 100,
"O=C(NC1(C(=O)NCC2CCC2)CC1)c1ccc(/C(F)=C/C(c2cc(Cl)c(Cl)c(Cl)c2)C(F)(F)F)cc1C(F)(F)F (stereo not shown) [F93, (Z)—N-(1-((Cyclobutylmethyl)carbamoyl)cyclopropyl)-4-(1,4,4,4-tetrafluoro-3-(3,4,5-trichlorophenyl)but-1-en-1-yl)-2-(trifluoromethyl)benzamide]",50 to 100,50 to 100,
"C[C@@H](NC(=O)c1ccc(/C(F)=C\C(c2cc(Cl)c(Cl)c(Cl)c2)C(F)(F)F)cc1C(F)(F)F)C(=O)NCC(F)(F)F (stereo partly drawn) [F17, N—((R)-1-oxo-1-((2,2,2-trifluoroethyl)amino)propan-2-yl)-4-((E)-1,4,4,4-tetrafluoro-3-(3,4,5-trichlorophenyl)but-1-en-1-yl)-2-(trifluoromethyl)benzamide]",50 to 100,50 to 100,
C[C@@H](NC(=O)c1ccc(/C(F)=C/C(c2cc(Cl)c(Cl)c(Cl)c2)C(F)(F)F)cc1C(F)(F)F)C(=O)/C=C/CC(F)(F)F (stereo partly shown) [F140],50 to 100,50 to 100,
"CCNC(=O)[C@@H](C)NC(=O)c1ccc(/C(F)=C/C(c2cc(Cl)c(Cl)c(Cl)c2)C(F)(F)F)cc1Cl (stereo partly drawn) [F64, 2-Chloro-N—((R)-1-(ethylamino)-1-oxopropan-2-yl)-4-((Z)-1,4,4,4-tetrafluoro-3-(3,4,5-trichlorophenyl)but-1-en-1-yl)benzamide]",50 to 100,50 to 100,
